Results published in US20230121313A1 (priority 2019, published 2023).
Values joined by “and” are separate entries in the source; they are usually repeats but may differ in a detail not shown here. Equal entries are not always repeated. “Also recorded” adds a separate entry of the source. Structures can show the parent of a compound that is named as a salt. Marks after values point to notes of the source that are not given here.

What was measured:
[1] = test system: female Sprague-Dawley rats; assay: Single dose neurotoxicity study, intranasal esketamine HCl (clinical observations, brain histopathology, toxicokinetics)
Description: (§1) For these studies, female specific pathogen free (SPF) Sprague-Dawley rats were used, which were approximately 12 to 14 weeks at start of dosing and weighed between 227 to 293 grams in the single dose study and between 235 to 296 grams in the 14-day repeated dose study. The rats were supplied by Charles River (Sulzfeld, Germany). They were group housed in polysulphone cages with floor area of 3000 cm^2 and Corn Cob (size 12, Eurocob, France) was provided as bedding material. Environmental enrichment existed of a rodent retreat (Bio-Serv, US) and aspen wood blocks (Datesand, UK). […] The animals were fed ad libitum with irradiated R/M-H pelleted maintenance diet from Ssniff (Germany). Hydrogel™ (supplied by Bio-services, Uden, the Netherlands) was provided to the MK-801 dosed rats in the single dose study.
Esketamine HCl was instilled intranasally at doses of 0 (vehicle), 36, 54 or 72 mg (expressed as esketamine base) to female rats on a single day. The dose levels were obtained by 2, 3 or 4 subsequent intranasal instillations, respectively, into both nostrils at a volume of 50 μL per nostril. At each instillation, the second nostril was dosed immediately after the first nostril. The interval between subsequent instillations into both nostrils was 5 minutes.
The vehicle control group received 4 subsequent intranasal instillations of the vehicle into both nostrils (50 μL per nostril) with 5-minute intervals.
The injection volume was 5 mL/kg.
The vehicle- and the 36 and 54 mg-dosed groups consisted of 24 animals per group, while the 72 mg-dosed and positive control groups involved 30 animals per group. Four satellite animals were added to the esketamine HCl-dosed groups of main study animals for toxicokinetic (TK) purposes. In these animals the plasma exposure to esketamine was measured on the day of dosing at various time points up to and including 24 hours after the first instillation.
Prior to the perfusion, rats were anesthetized with isoflurane. After injection of 0.1 ml heparin, the blood of the rat was flushed out with a physiological saline solution by intraarterial insertion of a needle in the abdominal aorta. Thereafter the rat was perfused with glutaraldehyde 3% in potassium phosphate 0.09M and 1.4% sucrose. Due to logistic constraints at maximum 30 animals could undergo the whole-body perfusion procedure on a given day. Therefore, a staggered start of treatment was applied to all 5 groups of main study animals. Consequently, subgroups of 4 main study animals of the vehicle- and 36 and 54 mg-dosed groups, and 5 main study animals of the 72 mg-dosed and positive control groups, were dosed on 6 consecutive days, respectively.
The vehicle control, positive control, and esketamine HCl-dosed animals were sacrificed at either 48 hours (i.e., the first 12 or 15 rats per group) or 96 hours after the dose administration time (i.e., the last 12 or 15 rats per group). The brain tissue of the vehicle control-, positive control- and esketamine HCl-treated rats were processed at the same time and handled in the same way in batches of 4 or 5 animals per group.
(§2) Furthermore, clinical observations were recorded for the esketamine HCl-dosed rats on the day of dosing at 0 till 5 minutes, 15 and 30 minutes, and at 1, 2, 4, 6 hours post-dose, at the end of the working day and at 24 hours after the last instillation in the single dose study and on the first day of dosing, after one week and towards the end of the dosing period in the repeated dose study. Body weight and body weight gain were measured daily. Food consumption was measured weekly in the repeated dose study.
On the day of terminal kill, a complete physical examination was performed on the rats in fasted condition and body weight was recorded. The surviving animals were anaesthetized by inhalation of an isoflurane (IsoFlo® Zoetis, Belgium)/oxygen mixture and killed by exsanguination via the carotid artery.

[2] = test system: female Sprague-Dawley rats; assay: 14-day repeated dose neurotoxicity study, intranasal esketamine HCl (clinical observations, brain histopathology, toxicokinetics); settings: for Abnormal respiration, incidence / Ataxia, incidence / Chromodacryorrhea, incidence / Decreased general activity, incidence / Decubitus, incidence / Increased general activity, incidence / Salivation (out of normal), incidence / audible respiration, incidence / bradypnoea, incidence: 14 days
Description: as §1
Esketamine HCl was administered into each nostril of female rats at a volume of 50 μl per nostril either once, twice or thrice daily by intranasal instillation for 14 consecutive days at doses of 0 (vehicle), 18, 36 or 54 mg/day. At each instillation, the second nostril was dosed immediately after the first nostril. The interval between subsequent instillations into both nostrils was 5 minutes when dosed 2 or 3 times per day.
The vehicle control group received 3 subsequent intranasal instillations of the vehicle into both nostrils (50 μL per nostril) with 5-minute intervals for 14 consecutive days.
The positive control group received a single subcutaneous injection of (+)MK-801 at 48 hours prior to the necropsy of the vehicle control and esketamine HCl-treated animals.
Each group of main study animals consisted of 12 female rats. Four satellite animals were added to the esketamine HCl-dosed groups of main study animals for TK purposes. The plasma exposure to esketamine was measured in these animals on the first and the last day of dosing at various time points up to and including 24 hours after the first instillation.
Due to logistic constraints associated with the whole body perfusion procedure of the animals at necropsy, a staggered start was applied to the study. Consequently, all 5 groups of main study animals were divided into three subgroups of 4 animals each. For each of these subgroups treatment started on a different day. The perfusion procedure is the is the same as described for the single dose study.
All vehicle- and esketamine HCl-treated animals were sacrificed at 48 hours after the last instillation. […] The brain tissue of the vehicle control-, positive control- and esketamine HCl-treated rats were processed at the same time and handled in the same way in batches of 4 animals per group.
as §2
On the day of terminal kill, a complete physical examination was performed on the rats in fasted condition and body weight was recorded. The surviving animals were anaesthetized by inhalation of an isoflurane (IsoFlo® Zoetis, Belgium)/oxygen mixture and killed by exsanguination via the carotid artery. […] All terminally killed rats or those killed pre-terminally were perfused with 4% paraformaldehyde in the single dose study and with glutaraldehyde 3% in potassium phosphate buffer 0.09 M with 1.4% sucrose in the repeated dose study.
Brain tissue was sampled and processed routinely. The trimmed and embedded tissue was sectioned and stained with hematoxylin-eosin (HE).

[3] = single dose neurotoxicity study, 72 mg
[4] = 14-day neurotoxicity study, 54 mg/day

CN[C@]1(c2ccccc2Cl)CCCCC1=O [esketamine, (S)-2-(2-chlorophenyl)-2-(methylamino)cyclohexanone]
AUC-based safety margin compared with the maximum 84 mg clinical dose [1, 3]: ~86 fold
Cmax-based safety margin compared with the maximum 84 mg clinical dose [1, 3]: approximately 60 fold
AUC-based safety margin compared with the maximum 84 mg clinical dose [2, 4]: ~11 fold
Cmax-based safety margin compared with the maximum 84 mg clinical dose [2, 4]: approximately 17 fold

CN[C@]1(c2ccccc2Cl)CCCCC1=O [esketamine HCl, (S)-2-(2-chlorophenyl)-2-(methylamino)cyclohexanone hydrochloride]
Duration of severely decreased activity with decubitus, bradypnea, ptosis, catalepsy (anesthesia) after last instillation ([1]; 36 mg): 15 to 30 min
Duration of ataxia (with increased activity) after recovery from decreased activity ([1]; 54 mg, hydrochloride): 1.5 to 3 h and 1 to 3 h
Duration of ataxia (with increased activity) after recovery from decreased activity ([1]; 72 mg): up to 3 hours or longer
Abnormal respiration, incidence ([1]; single dose 36 mg intranasal): 22/24***
Ataxia, incidence ([1]; single dose 36 mg intranasal): 24/24***
Catalepsy, incidence ([1]; single dose 36 mg intranasal): 20/24***
Chromodacryorrhea, incidence ([1]; single dose 36 mg intranasal): 0/24
Decreased general activity, incidence ([1]; single dose 36 mg intranasal): 23/24***
Decubitus, incidence ([1]; single dose 36 mg intranasal): 23/24***
Increased general activity, incidence ([1]; single dose 36 mg intranasal): 24/24***
Narrowed palpebral fissure, incidence ([1]; single dose 36 mg intranasal): 7/24**
Piloerection, incidence ([1]; single dose 36 mg intranasal): 0/24
Salivation (out of normal), incidence ([1]; single dose 36 mg intranasal): 23/24***
audible respiration, incidence ([1]; single dose 36 mg intranasal): 10/24***
bradypnoea, incidence ([1]; single dose 36 mg intranasal): 22/24***
Abnormal respiration, incidence ([1]; single dose 54 mg intranasal): 22/24***
Ataxia, incidence ([1]; single dose 54 mg intranasal): 24/24***
Catalepsy, incidence ([1]; single dose 54 mg intranasal): 23/24***
Chromodacryorrhea, incidence ([1]; single dose 54 mg intranasal): 0/24
Decreased general activity, incidence ([1]; single dose 54 mg intranasal): 23/24***
Decubitus, incidence ([1]; single dose 54 mg intranasal): 23/24***
Increased general activity, incidence ([1]; single dose 54 mg intranasal): 24/24***
Narrowed palpebral fissure, incidence ([1]; single dose 54 mg intranasal): 10/24***
Piloerection, incidence ([1]; single dose 54 mg intranasal): 0/24
Salivation (out of normal), incidence ([1]; single dose 54 mg intranasal): 24/24***
audible respiration, incidence ([1]; single dose 54 mg intranasal): 3/24
bradypnoea, incidence ([1]; single dose 54 mg intranasal): 21/24***
Abnormal respiration, incidence ([1]; single dose 72 mg intranasal): 30/30***
Catalepsy, incidence ([1]; single dose 72 mg intranasal): 30/30***
Chromodacryorrhea, incidence ([1]; single dose 72 mg intranasal): 0/30
Decreased general activity, incidence ([1]; single dose 72 mg intranasal): 30/30***
Decubitus, incidence ([1]; single dose 72 mg intranasal): 30/30***
Increased general activity, incidence ([1]; single dose 72 mg intranasal): 29/30***
Narrowed palpebral fissure, incidence ([1]; single dose 72 mg intranasal): 22/30***
Piloerection, incidence ([1]; single dose 72 mg intranasal): 0/30
Salivation (out of normal), incidence ([1]; single dose 72 mg intranasal): 29/30***
audible respiration, incidence ([1]; single dose 72 mg intranasal): 2/30
bradypnoea, incidence ([1]; single dose 72 mg intranasal): 30/30***
Brain histopathology (neuronal necrosis / Olney lesions in PCG/RSC) ([1]; single dose study, esketamine HCl intranasal up to 72 mg, (+)MK-801 maleate 1 mg/kg sc, 48 and 96 h post-dose, hydrochloride): no morphological evidence of neuronal degeneration; also recorded: histopathological lesions were absent; also recorded: No signs of neuronal necrosis were found; also recorded: no neuropathological lesions were observed
Mortality ([1]; single intranasal dose 72 mg, within 30 minutes after 4 instillations): two main study animals and two satellite TK animals died
Mortality ([1]; single intranasal dose up to 54 mg): No test article related mortality
Abnormal respiration, incidence ([2]; 18 mg/day intranasal): 2/12
Ataxia, incidence ([2]; 18 mg/day intranasal): 12/12***
Chromodacryorrhea, incidence ([2]; 18 mg/day intranasal): 0/12
Decreased general activity, incidence ([2]; 18 mg/day intranasal): 5/12
Decubitus, incidence ([2]; 18 mg/day intranasal): 0/12
Increased general activity, incidence ([2]; 18 mg/day intranasal): 12/12***
Salivation (out of normal), incidence ([2]; 18 mg/day intranasal): 12/12***
audible respiration, incidence ([2]; 18 mg/day intranasal): 2/12
bradypnoea, incidence ([2]; 18 mg/day intranasal): 0/12
Abnormal respiration, incidence ([2]; 36 mg/day intranasal): 11/12***
Ataxia, incidence ([2]; 36 mg/day intranasal): 12/12***
Chromodacryorrhea, incidence ([2]; 36 mg/day intranasal): 0/12
Decreased general activity, incidence ([2]; 36 mg/day intranasal): 12/12***
Decubitus, incidence ([2]; 36 mg/day intranasal): 2/12
Increased general activity, incidence ([2]; 36 mg/day intranasal): 12/12***
Salivation (out of normal), incidence ([2]; 36 mg/day intranasal): 12/12***
audible respiration, incidence ([2]; 36 mg/day intranasal): 6/12**
bradypnoea, incidence ([2]; 36 mg/day intranasal): 11/12***
Abnormal respiration, incidence ([2]; 54 mg/day intranasal): 12/12***
Ataxia, incidence ([2]; 54 mg/day intranasal): 12/12***
Chromodacryorrhea, incidence ([2]; 54 mg/day intranasal): 0/12
Decreased general activity, incidence ([2]; 54 mg/day intranasal): 12/12***
Decubitus, incidence ([2]; 54 mg/day intranasal): 8/12***
Increased general activity, incidence ([2]; 54 mg/day intranasal): 12/12***
Salivation (out of normal), incidence ([2]; 54 mg/day intranasal): 12/12***
audible respiration, incidence ([2]; 54 mg/day intranasal): 6/12**
bradypnoea, incidence ([2]; 54 mg/day intranasal): 12/12***
Maximum tolerated dose (MTD) upon repeated intranasal administration ([2]; 14-day dose-range finding study (internal study)): 54 mg/day
Brain histopathology (neuronal necrosis / Olney lesions in PCG/RSC) ([2]; 14-day study, esketamine HCl intranasal up to 54 mg/day, (+)MK-801 maleate single 1 mg/kg sc, 48 h after last dose, hydrochloride, 1 mg/kg): absence of neuronal necrosis; also recorded: no histopathological lesions were noted; also recorded: did not; also recorded: No histopathological lesions were found
Mortality ([2]; up to 54 mg/day for 14 days): No test article related mortality occurred
